This is an account of results in US10791742B2, “Plant growth regulator compounds” (SYNGENTA PARTICIPATIONS AG, priority 2016, dated 2020).

The subject of assay [1] is corn plants (variety NK OCTET). As to the kind of experiment: Reduced plant water use in corn (foliar spray, pot weighing). It counts as in vivo. The settings on record: for % WU 0 DAA (PM): Table A3 (comparison trial), 0 DAA p.m. The protocol:
(§1) Compounds were tested for their effect on reducing plant water use as follows. The compounds were applied by foliar spray to 12 day old corn plants (variety NK OCTET) grown in controlled environment plant growth chambers. All compounds were applied using an emulsifiable concentrate (EC) formulation that was diluted to the desired concentrations with water containing 0.4% of the adjuvant rape seed methyl ester. Plant water use during the day was assessed by repeated weighing of the pots in which the plants were grown before and after application of the compounds at the indicated times (expressed in days after application (DAA)). The water use data before application was used to correct any differences in water use arising due to non-treatment effects (e.g. due to differences in plant size). The untransformed water use values were subjected to an analysis of covariance, fitting the effect of treatment and using the baseline water use 1 day before application as a covariate. Application of the chemicals (0 DAA) took place approximately between 08:00 and 09:30 a.m. Water use (WU) was measured within day time (chamber light is on 06:00 to 20:00) at these timepoints: 0 DAA a.m. (10:30-12:50), 0 DAA p.m. (14:00-19:50).

Assay [2] has as its system soybean plants (variety S20-G7). As to the kind of experiment: Reduced plant water use in soybean (foliar spray, pot weighing). It counts as in vivo. The settings on record: Table A4, 125 μM foliar spray, water use vs negative control, average of 6 pots; for % WU 0 DAA (AM): 0 DAA a.m. (10:30-12:50); for % WU 0 DAA (PM): 0 DAA p.m. (14:00-19:50). The method, then: as §1, with “soybean” for “corn”, “S20-G7)” for “NK OCTET)”, “concentration” for “concentrations”, “additional surfactant (EXTRAVON 1 g/20 L).” for “0.4% of the adjuvant rape seed methyl ester.”, “covariate.” for “covariate. Application of the chemicals (0 DAA) took place approximately between 08:00 and 09:30 a.m. Water use (WU) was measured within day time (chamber light is on 06:00 to 20:00) at these timepoints: 0 DAA a.m. (10:30-12:50), 0 DAA p.m. (14:00-19:50).”
Application of the chemicals (0 DAA) took place approximately between 08:00 and 09:30 a.m. Water use (WU) was measured within day time (chamber light is on 06:00 to 20:00) at these timepoints: 0 DAA a.m. (10:30-12:50), 0 DAA p.m. (14:00-19:50).

The mark [3] stands for this setting: corn, 500 μM foliar spray, water use vs negative control, average of 6 pots.

Consider `CCN1C(=O)CC(C)c2cc(CNS(=O)(=O)c3ccccc3)ccc21` (centres unmarked) [A, reference compound], for which the “% WU 0 DAA (PM)” value in assay [1] (setting [3]) is −24%.
In the case of `CCN1C(=O)OC(C)c2cc(CNS(=O)(=O)c3ccccc3)cc(F)c21` (centres unmarked) [Compound 20.001, N-[(1-ethyl-8-fluoro-4-methy1-2-oxo-4H-3,1-benzoxazin-6-yl)methyl]benzenesulfonamide], in assay [1] (Table A2 (further trial), corn, 500 μM foliar spray, water use vs negative control, 0 DAA a.m. (10:30-12:50), average of 6 pots), the “% WU 0 DAA (AM)” value is −37%. Further, the “% WU ODAA (PM)” value in assay [1] (Table A2 (further trial), corn, 500 μM foliar spray, water use vs negative control, 0 DAA p.m. (14:00-19:50), average of 6 pots) is −42%.
Turning to `CCCN1C(=O)OC(C)c2cc(CNS(=O)(=O)c3ccccc3)ccc21` (centres unmarked) [Compound 14.001, N-[(4-methyl-2-oxo-1-propyl-4H-3,1-benzoxazin-6-yl)methyl]-benzenesulfonamide], in assay [2], the “% WU 0 DAA (AM)” value is recorded as −49% and the “% WU 0 DAA (PM)” value is −55%.
For `CCCN1C(=O)OC(C)c2cc(CNS(=O)(=O)c3ccc(Cl)s3)ccc21` (centres unmarked) [Compound 14.048, 5-chloro-N-[(4-methyl-2-oxo-1-propyl-4H-3,1-benzoxazin-6-yl)methyl]thiophene-2-sulfonamide] the same measures were −51% and −55%.
With `CCN1C(=O)OC(C)c2cc(CNS(=O)(=O)c3ccccc3)ccc21` (centres unmarked) [Compound 13.001, N-[(1-ethyl-4-methyl-2-oxo-4H-3,1-benzoxazin-6-yl)methyl]-benzenesulfonamide], the “% WU 0 DAA (PM)” value in assay [1] (setting [3]) is listed as −40%. Besides, in assay [1] (concluded from Table A3, corn water use at 500 μM), the “ABA agonist potency compared with compound A (in words)” value is on record as “more potent ABA agonist than dihydroquinolinone compound A”.
As to `CCCN1C(=O)OC(C)c2cc(CNS(=O)(=O)c3ccccc3)cc(F)c21` (centres unmarked) [Compound 25.001, N-[(8-fluoro-4-methyl-2-oxo-1-propyl-4H-3,1-benzoxazin-6-yl)methyl]benzenesulfonamide], in assay [2], the “% WU 0 DAA (AM)” value is recorded as −48% and the “% WU 0 DAA (PM)” value was −53%.
